The text below walks through data of paper PMC6330093 (Bioconjugate chemistry, 2017).

The target in one series is proteinase K (Parengyodontium album, UniProt P06873). The series is described as follows: HPLC-based proteolysis assay with proteinase K. The series is classed as in vitro ADME.
For series [1] the following is noted: variable temperature CD, 50 μM protein, 20 mM sodium phosphate buffer, pH 7.

Sequence of proteinase K (P06873 106-384, species assumed): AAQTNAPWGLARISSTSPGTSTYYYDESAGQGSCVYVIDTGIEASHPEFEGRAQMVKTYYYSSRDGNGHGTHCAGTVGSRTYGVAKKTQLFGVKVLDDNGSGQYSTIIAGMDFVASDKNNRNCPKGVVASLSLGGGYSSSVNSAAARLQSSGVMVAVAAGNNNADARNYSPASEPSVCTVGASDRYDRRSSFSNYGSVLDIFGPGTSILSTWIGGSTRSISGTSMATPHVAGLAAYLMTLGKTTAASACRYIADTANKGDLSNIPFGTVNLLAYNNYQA

Turning to `CC[C@H](C)[C@H](NC(=O)[C@H](CCC(N)=O)NC(=O)[C@H](CC(N)=O)NC(=O)[C@H](Cc1ccccc1)NC(=O)[C@H](Cc1ccc(O)cc1)NC(=O)[C@H](Cc1ccc(O)cc1)NC(=O)[C@@H](NC(=O)[C@H](CCCNC(=N)N)NC(=O)CNC(=O)[C@H](CO)NC(=O)[C@H](CO)NC(=O)[C@H](CCCNC(=N)N)NC(=O)[C@H](CO)NC(=O)[C@H](CCSC)NC(=O)[C@H](CCCNC(=N)N)NC(=O)[C@H](CCCCN)NC(=O)[C@H](CCC(=O)O)NC(=O)[C@H](Cc1c[nH]c2ccccc12)NC(=O)CNC(=O)[C@@H]1CCCN1C(=O)[C@@H]1CCCN1C(=O)[C@H](CC(C)C)NC(=O)[C@@H](N)CCCCN)C(C)C)C(=O)N[C@H](C(=O)N[C@@H](CC(N)=O)C(=O)N[C@@H](C)C(=O)N[C@@H](CO)C(=O)N[C@@H](CCC(N)=O)C(=O)N[C@@H](Cc1ccccc1)C(=O)N[C@@H](CCC(=O)O)C(=O)N[C@@H](CCCNC(=N)N)C(=O)N1CCC[C@H]1C(=O)N[C@@H](CO)C(=O)NCC(=O)O)[C@@H](C)O` [27Q], the “k, apparent proteolysis rate constant” value on proteinase K was 10.8 ±0.2 s^−1 × 10^3. The “Tm (melting temperature)” value in series [1] was 56.4 ±0.2 °C.

Take `CC[C@H](C)[C@H](NC(=O)[C@H](Cc1c[nH]cn1)NC(=O)[C@H](CC(N)=O)NC(=O)[C@H](Cc1ccccc1)NC(=O)[C@H](Cc1ccc(O)cc1)NC(=O)[C@H](Cc1ccc(O)cc1)NC(=O)[C@@H](NC(=O)[C@H](CCCNC(=N)N)NC(=O)CNC(=O)[C@H](CO)NC(=O)[C@H](CCC(N)=O)NC(=O)[C@H](CCCNC(=N)N)NC(=O)[C@H](CO)NC(=O)[C@H](CCSC)NC(=O)[C@H](CCCNC(=N)N)NC(=O)[C@H](CCCCN)NC(=O)[C@H](CCC(=O)O)NC(=O)[C@H](Cc1c[nH]c2ccccc12)NC(=O)CNC(=O)[C@@H]1CCCN1C(=O)[C@@H]1CCCN1C(=O)[C@H](CC(C)C)NC(=O)[C@@H](N)CCCCN)C(C)C)C(=O)N[C@H](C(=O)N[C@@H](CC(N)=O)C(=O)N[C@@H](C)C(=O)N[C@@H](CO)C(=O)N[C@@H](CCC(N)=O)C(=O)N[C@@H](Cc1ccccc1)C(=O)N[C@@H](CCC(=O)O)C(=O)N[C@@H](CCCNC(=N)N)C(=O)N1CCC[C@H]1C(=O)N[C@@H](CO)C(=O)NCC(=O)O)[C@@H](C)O` [18Q]: the “k, apparent proteolysis rate constant” value at proteinase K is on record as 7.8 ±0.4 s^−1 × 10^3. In addition, the “Tm (melting temperature)” value in series [1] worked out at 58.5 ±0.2 °C.
